Entries after “also recorded” stand apart in the source; their conditions may differ.
System: Purkinje cells in acute cerebellar slices from SCA2-58Q mouse
Assay: Cerebellar slice loose-patch recordings of spontaneous PC activity in SCA2-58Q mice
Assay type: cell-based
Conditions: 10 μM; for effect on PC firing pattern: bursting SCA2-58Q PC; for Average firing frequency (FF) after exposure: 10-s fragment of one PC recording, before application 2o 157.2 Hz, 2q 134.3 Hz
Method: The ISI distribution before and after 2o application, obtained from 10-s fragments of the recording was also analyzed (FIG. 9C). […] The ISI distribution before and after 2q application, obtained from 10-s fragments of the recording was also analyzed (FIG. 10A).
Transgenic SCA2-58Q mice and their wild type (WT) littermates were used in these experiments. SCA2-58Q mice were kindly provided to us by Dr. Stefan Pulst (University of Utah) and were crossed to the FVB background strain. Hemizygous male SCA2-58Q mice were crossed with the WT female mice to generate mixed litters. The genotyping was done via PCR for ATXN2 transgene. The volume of one PCR sample was 25 μl. The PCR mix per one sample contained: 2.5 μl 10× buffer for Taq polymerase, 0.5 μl 10 mM dNTP, 1.5 μl 25 mM MgCl2, 0.125 μl 20 μM primers (forward and reverse), 0.25 μl Taq polymerase, 2 μl DNA, and 18 μl dH2O. For forward and reverse primer sequences, see e.g., Egorova et al., Cell Calcium, 2021 January; 93: 102319. The PCR product has 232 bp. Mice were housed in groups of two to six in one cage in the vivarium. The temperature was kept 22-24° C. including 12 daylight hours. […] All procedures were approved by the Bioethics Committee of the Peter the Great St. Petersburg Polytechnic University at St. Petersburg, Russia, and followed the principles of the European convention (Strasbourg, 1986) and the Declaration of International medical association about humane treatment of animals (Helsinki, 1996).
Recordings of spontaneous PC activity from WT and SCA2-58Q mice at 7-8 months of age were performed. Briefly, the mice were anesthetized with 2,000 mg/kg urethane and transcardially perfused with ice-cold aCSF containing 85 mM NaCl, 24 mM NaHCO3, 25 mM glucose, 2.5 mM KCl, 0.5 mM CaCl2, 4 mM MgCl2, 1 mM NaH2PO4, and 75 mM sucrose. Solutions were equilibrated with carbogen (95% O2/5% CO2). Next, the cerebellum was dissected and 300 μm thick sagittal slices were cut with a VT1200S vibratome (Leica). […] The external bath solution used for the recording was the same as the recovery aCSF, but also contained 100 μM picrotoxin (PTX) and 10 μM 6,7-dinitroquinoxaline-2,3-dione (DNQX), equilibrated with carbogen. All recordings were made within 5-6 hours after cerebellum was dissected. The recording chamber was heated to 35° C. using TC-324C automatic temperature controller (Warner Instruments). Loose-patch recordings were made to evaluate the spontaneous activity of cerebellar PCs. Briefly, 1-3 MΩ glass pipettes were filled with the internal solution containing 140 mM NaCl buffered with 10 mM HEPES pH 7.3 and held at 0 mV. A loose patch (<100 MΩ) configuration was established at the PC soma at the axon hillock area. Spontaneous action potential currents were recorded for 5-60 min from each cell using Axon Multiclamp 700B amplifier (Molecular Devices). The 10 min recordings were analyzed for tonic or burst firing. Cells were characterized as firing tonically if they fired repetitive nonhalting spike trains for 10 min. A cell was characterized as bursting if it had more than 5% of the interspike intervals that fell outside of 3 SD from the mean of all interspike intervals in that cell. The analysis of PC firing was performed using Clampfit 10.2 (Molecular Devices). Data was plotted as the instantaneous firing rate every 100 ms for the entire recording duration.

SMILES: Cc1cc(Nc2cc(Cl)ccc2F)nc(-n2nc(C)cc2C)n1 [Compound 2q, N-(5-Chloro-2-fluorophenyl)-2-(3,5-dimethyl-1H-pyrazol-1-yl)-6-methylpyrimidin-4-amine]
- effect on PC firing frequency: significantly decreased the firing frequency of the cell
- effect on regularity of PC activity: improved the regularity of PC activity
- time after application until cell activity switched to the silent mode: 8 min
- effect on PC firing pattern: converted bursting SCA2-58Q PC to tonic firing pattern; also recorded: normalize abnormal firing of Purkinje cells; also recorded: converts bursting patterns into tonic activity of PC and then into a silent mode
- Average firing frequency (FF) after exposure: 55.9 Hz

SMILES: Cc1cc(Nc2ccc(F)c(Cl)c2)nc(-n2nc(C)cc2C)n1 [Compound 2o, N-(3-Chloro-4-fluorophenyl)-2-(3,5-dimethyl-1H-pyrazol-1-yl)-6-methyl-pyrimidin-4-amine]
- effect on PC firing frequency: significantly decreased the firing frequency of the cell
- effect on regularity of PC activity: improved the regularity of PC activity
- effect on PC firing pattern: converted bursting SCA2-58Q PC to tonic firing pattern; also recorded: normalize abnormal firing of Purkinje cells; also recorded: converts bursting patterns into tonic activity of PC
- Average firing frequency (FF) after exposure: 84.6 Hz

From patent US12312333B2, “SK channel positive allosteric modulators” (Chapman University, priority 2021, dated 2025)
